Data: US4873232A, “Novel use for carbamoyl benzoates” (Syntex, priority 1986, dated 1989)
Like-named read-outs stand apart in the source and are kept apart here.

Legend:
[1] = system: Experimental Allergic Encephalomyelitis in Rat; assay: Experimental Allergic Encephalomyelitis in rat; format: in vivo, rat (female LEW/Crl BR); conditions: for Body Wt.: day 17
Description: 3. Experimental allergic encephalomyelitis in the rat. […] A mixture of syngeneic spinal cord homogenate in Freund's Complete Adjuvant injected subcutaneously into the rat induces an […] response directed against the myelin covering the nerves of the central nervous system. […] These symptoms result from attack of immune cells on the nerves with subsequent destruction and loss of ability to transmit the nervous impulses necessary for controlling muscle function. […] This is consistent with the general immuno-suppressive effects of this drug. Corticosteroid treatment also prevents the appearance of paralytic symptoms, but the dose of corticosteroid required is such that the corticosteroid itself causes weight loss greater than that produced by the disease alone. In contrast to their action in Adjuvant-inducted Arthritis in the rat, aspirin-like drugs are completely ineffective in preventing the symptoms and weight loss of experimental allergic encephalomyelitis.
Experimental Allergic Encephalomyelitis in Rat
Method: Test for Inhibition of Experimental Allergic Encephalomyelitis Induced in Rats
Female LEW/Crl BR rats weighing 125-135 g were randomly assigned to treatment groups of ten animals. Experimental allergic encephalomyelitis was induced by injecting into the right hind paw of each animal 0.1 ml of an emulsion containing 15 mg (wet weight) of syngeneic spinal cord tissue, 0.06 ml of Freund's Incomplete Adjuvant (Difco), 0.04 ml of sterile 0.9% saline and 0.2 mg of heat-killed, dried Mycobacterium butyricum (Difco). Test materials prepared as solutions or suspensions in aqueous carboxymethyl cellulose vehicle were administered orally each day for 16 days, starting on the day of injection. Animals were individually identified and weighed on day one, and again on day 17.

[2] = system: Carrageenan-induced paw edema in the rat; assay: Carrageenan-induced paw edema in rat; format: in vivo, rat (female albino, Sim:(SD)fbr); conditions: one hour prior to carrageenan
Description: 1. Carrageenan-induced paw edema in the rat. […] A solution of carrageenan injected into the foot pad of a rat causes reddening, swelling and pain which is maximal three to six hours after administration and then resolves. […] Immuno-suppressive agents are not effective under these circumstances.
Carrageenan-induced Paw Edema in Rat
Method: Test for Determining Anti-Inflammatory Activity Utilizing Carrageenan-Induced Paw Inflammation in Rats
The method used was basically that of Winter, et al. (See, Winter, C.A., Risley, E.A., and Nuss, G.W.: Carrageenan-induced edema in hind paw of the rat as an assay for anti-inflammatory drugs, Proc. Soc. Exp. Biol. Med. 111:544-547, 1962.) Female albino rats (Sim: (SD)fbr) weighing 80-90 g received the test material p.o. in 1 ml aqueous vehicle at hour zero (0 hr). One hour later (hr 1), 0.05 ml of a 1% solution (in aqueous 0.9% NaCl) or carrageenan was injected into the right hind paw to inflame the paw. The rats were sacrificed at hour 4, at which time both hind paws were removed and individually weighed. The percent increase in the weight of the inflamed paw over that of the opposite non-inflamed paw was calculated.

[3] = system: Adjuvant-induced Arthritis in Rat; assay: Adjuvant-induced Arthritis in rat; format: in vivo, rat (female Hla:(SD) BR); conditions: oral
[4] = system: Gastro-Intestinal Erosion in Rats; conditions: background, in words; cited from earlier work
[5] = Ability to cause gastro-intestinal erosion in rats; set-up: species or system rat (male Lai:COX (SD)); conditions: rat, in vivo
Method: Method: Test for Ability to Cause Gastro-Intestinal Erosion in Rats
Male Lai: COX (SD) rats weighing 200-250 g were acclimated for one week under standard laboratory conditions. Each animal was individually identified and body weights were determined on the first day of the test and again at autopsy. The test materials, suspended in aqueous carboxymethyl cellulose vehicle, were administered orally once daily in a volume of 1.0 ml per 100 g body weight for seven consecutive days. Food was withdrawn from the animals following the last dose and the animals were sacrificed 24 hours later. At necropsy, the stomach and intestines were removed and observed for lesions. […] The highest test dose level producing no detectable lesions is reported.

[6] = system: Experimental Allergic Encephalomyelitis in Rat; conditions: daily treatment, background; cited from earlier work
[7] = system: Adjuvant-induced Arthritis in Rat; conditions: daily administration of appropriate doses, background; cited from earlier work
[8] = oral 10 mg/kg daily for 16 days
[9] = oral 50 mg/kg daily for 16 days
[10] = oral dose 10 mg/kg, * = not significant
[11] = oral dose 100 mg/kg, * = not significant
[12] = oral dose 30 mg/kg, * = not significant
[13] = oral once daily for seven days, read-out: Minimum Dose causing G.I. Erosions

## COc1cc(NC(=O)OCc2ccccc2)c(C(=O)O)cc1OC [2-benzyloxycarbonylamino-4,5-dimethoxybenzoic acid]
[1]; oral 2 mg/kg daily for 16 days
  Body Wt.: 142 ± 5.3 gm
[1]; [8]
  Body Wt.: 144 ± 3.9 gm

## C[C@@H]1C[C@H]2[C@@H]3CCC4=CC(=O)C=C[C@]4(C)[C@@]3(F)[C@@H](O)C[C@]2(C)[C@@]1(O)C(=O)CO [Dexamethasone, reference compound]
[1]; oral 0.25 mg/kg daily for 16 days
  Body Wt.: 130 ± 0.4 gm
[1]; oral 0.25 mg/kg daily for 16 days, observed days 12-17
  % Animals With Paralysis: 0%
[2]; oral dose 0.1 mg/kg
  Inhibition of Hind Paw Weight Increase: 71

## CCOC(=O)Nc1ccccc1C(=O)O [2-Ethoxycarbonyl-aminobenzoic acid, 2-ethoxycarbonylaminobenzoic acid]
[1]; oral 2 mg/kg daily for 16 days
  Body Wt.: 150 ± 4.2 gm
[1]; [8]
  Body Wt.: 162 ± 3.4 gm
[1]; [9]
  Body Wt.: 151 ± 4.4 gm

## O=C(O)c1ccccc1Nc1cccc(C(F)(F)F)c1 [Flufenamic acid, reference compound]
[3]; at 35 mg/kg
  Inhibition of Adjuvant Arthritis: 80%
[1]; oral 30 mg/kg daily for 16 days
  Body Wt.: 135 ± 2.4 gm
[1]; oral 100 mg/kg daily for 16 days
  Body Wt.: 128 ± 2.1 gm
[2]; [10]
  Inhibition of Hind Paw Weight Increase: 35
[2]; [11]
  Inhibition of Hind Paw Weight Increase: 52
[4]
  gastro-intestinal effects associated with aspirin-like drugs: gastro-intestinal (ulcerogenic) effects
[5]; po
  NOAEL at 168 h: 35 mg/kg/day

## O=C(Nc1ccccc1C(=O)O)OCc1ccccc1 [2-Benzyloxycarbonyl-aminobenzoic acid, 2-benzyloxycarbonylaminobenzoic acid]
[1]; oral 2 mg/kg daily for 16 days
  Body Wt.: 131 ± 3.6 gm
[1]; [8]
  Body Wt.: 141 ± 6.3 gm

## CCOC(=O)Nc1cccc(C)c1C(=O)O [2-Ethoxycarbonylamino-6-methylbenzoic acid]
[3]; at 50 mg/kg, n.s.
  Inhibition of Adjuvant Arthritis: 30%
[1]; oral 5 mg/kg daily for 16 days
  Body Wt.: 164 ± 4.9 gm
[1]; [8]
  Body Wt.: 155 ± 3.7 gm
[1]; oral 25 mg/kg daily for 16 days
  Body Wt.: 154 ± 6.0 gm
[2]; [10]
  Inhibition of Hind Paw Weight Increase: 9
[2]; [12]
  Inhibition of Hind Paw Weight Increase: 13
[2]; [11]
  Inhibition of Hind Paw Weight Increase: 12
[5]; [13]
  NOAEL at 168 h: > 100 mg/kg/day

## Cc1cccc(NC(=O)OCC(C)C)c1C(=O)O [2-isobutoxycarbonylamino-6-methylbenzoic acid]
[3]; at 50 mg/kg, n.s.
  Inhibition of Adjuvant Arthritis: 0%
[2]; [11]
  Inhibition of Hind Paw Weight Increase: 23
[5]; [13]
  NOAEL at 168 h: > 100 mg/kg/day

## Cc1cccc(NC(=O)OCc2ccccc2)c1C(=O)O [2-benzyloxycarbonylamino-6-methylbenzoic acid]
[1]; [8]
  Body Wt.: 146 ± 3.6 gm
[2]; [11]
  Inhibition of Hind Paw Weight Increase: 10

## Cc1cccc(N)c1C(=O)O [2-Amino-6-methylbenzoic acid, 2-amino-6-methyl-benzoic acid, reference compound]
[3]; at 50 mg/kg, n.s.
  Inhibition of Adjuvant Arthritis: 0%
[1]; oral 2 mg/kg daily for 16 days
  Body Wt.: 153 ± 5.2 gm
[1]; [8]
  Body Wt.: 145 ± 4.1 gm
[1]; [9]
  Body Wt.: 141 ± 4.0 gm
[2]; [10]
  Inhibition of Hind Paw Weight Increase: 5
[2]; [12]
  Inhibition of Hind Paw Weight Increase: 7
[2]; [11]
  Inhibition of Hind Paw Weight Increase: 0
[5]; po
  NOAEL at 168 h: > 250 mg/kg/day

## O=P1(N(CCCl)CCCl)NCCCO1 (stereo not drawn) [cyclophosphamide]
[6]
  effect on weight loss and paralysis in experimental allergic encephalomyelitis: gives protection from the weight loss and paralysis
[7]
  control of manifestations of Adjuvant-induced arthritis: effectively controlled

## CCOC(=O)Nc1cc(OC)c(OC)cc1C(=O)O [2-ethoxycarbonylamino-4,5-dimethoxybenzoic acid]
[3]; at 50 mg/kg, n.s.
  Inhibition of Adjuvant Arthritis: 0%
[1]; oral 2 mg/kg daily for 16 days
  Body Wt.: 157 ± 4.0 gm
[1]; [8]
  Body Wt.: 137 ± 5.7 gm
[1]; [9]
  Body Wt.: 154 ± 5.8 gm
[5]; [13]
  NOAEL at 168 h: > 100 mg/kg/day
